According to patent US4104306A, “12A-Deoxy chelocardin” (Abbott Laboratories, priority 1976, dated 1978):
Where a name gives a salt, the structure may show the parent alone.

How the values were obtained:
Format in all cases: cell-based
[1] = tested on: Diplococcus pneumoniae 6301; test: tube dilution test; conditions: Streptococcus pneumoniae, broth with 20% horse serum, read-out: minimum inhibitory concentration (MIC)
Experimental: The antibacterial activity of the above material was tested in the usual fashion, using a two-fold, brain-heart infusion agar (BHI 10 ml/plate) dilution test with 12 different organisms. The following minimum inhibitory concentrations (MIC) were determined: | *tube dilution test; broth container with 20% horse serum

[2] = tested on: Pasteurella multocida 10544; test: two-fold brain-heart infusion agar dilution test; conditions: BHI agar dilution, 10 ml/plate, read-out: minimum inhibitory concentration (MIC)
Experimental: (§1) The antibacterial activity of the above material was tested in the usual fashion, using a two-fold, brain-heart infusion agar (BHI 10 ml/plate) dilution test with 12 different organisms. The following minimum inhibitory concentrations (MIC) were determined: […]

[3] = tested on: Salmonella typhimurium Ed. #9; test: two-fold brain-heart infusion agar dilution test; conditions: Salmonella enterica, BHI agar dilution, 10 ml/plate, read-out: minimum inhibitory concentration (MIC)
Experimental: as §1

Enterococcus 89 = test: two-fold brain-heart infusion agar dilution test; conditions: BHI agar dilution, 10 ml/plate, read-out: minimum inhibitory concentration (MIC)
Experimental: as §1

[4] = tested on: Pseudomonas aeruginosa BMH #10; test: two-fold brain-heart infusion agar dilution test; conditions: BHI agar dilution, 10 ml/plate, read-out: minimum inhibitory concentration (MIC)
Experimental: as §1

Proteus mirabilis Fin #9 = test: two-fold brain-heart infusion agar dilution test; conditions: BHI agar dilution, 10 ml/plate, read-out: minimum inhibitory concentration (MIC)
Experimental: as §1

[5] = tested on: Proteus vulgaris Abbott JJ; test: two-fold brain-heart infusion agar dilution test; conditions: BHI agar dilution, 10 ml/plate, read-out: minimum inhibitory concentration (MIC)
Experimental: as §1

Escherichia coli Juhl = test: two-fold brain-heart infusion agar dilution test; conditions: BHI agar dilution, 10 ml/plate, read-out: minimum inhibitory concentration (MIC)
Experimental: as §1

[6] = tested on: Klebsiella pneumoniae 8045; test: two-fold brain-heart infusion agar dilution test; conditions: BHI agar dilution, 10 ml/plate, read-out: minimum inhibitory concentration (MIC)
Experimental: as §1

Staph. aureus Smith = test: two-fold brain-heart infusion agar dilution test; conditions: Staphylococcus aureus, BHI agar dilution, 10 ml/plate, read-out: minimum inhibitory concentration (MIC)
Experimental: as §1

Staph. aureus 45 = test: two-fold brain-heart infusion agar dilution test; conditions: Staphylococcus aureus, BHI agar dilution, 10 ml/plate, read-out: minimum inhibitory concentration (MIC)
Experimental: as §1

[7] = tested on: Streptococcus pyrogenes C203; test: two-fold brain-heart infusion agar dilution test; conditions: BHI agar dilution, 10 ml/plate, read-out: minimum inhibitory concentration (MIC)
Experimental: as §1

MIC [1]: 25 µg/mL | MIC [2]: 0.39 µg/mL | MIC [3]: 6.2 µg/mL | MIC (Enterococcus 89): 6.2 µg/mL | MIC [4]: 100 µg/mL | MIC (Proteus mirabilis Fin #9): 6.2 µg/mL | MIC [5]: 3.1 µg/mL | MIC (Escherichia coli Juhl): 25 µg/mL | MIC [6]: 6.2 µg/mL | MIC (Staph. aureus Smith): 3.1 µg/mL | MIC (Staph. aureus 45): 3.1 µg/mL | MIC [7]: 6.2 µg/mL
Compound: CC(=O)C1=C(O)C(N)C2Cc3c(c(O)c4c(O)c(C)ccc4c3C)C(O)=C2C1=O (stereo not drawn) [12a-deoxychelocardin hydrobromide]
